Measurements as given in publication PMC9019904, “AD Informer Set: Chemical tools to facilitate Alzheimer's disease drug discovery” (Alzheimer's & Dementia : Translational Research & Clinical …, 2022).
Where a SMILES comes first, the peptide text is derived from it. [ ]: non-standard residue; d: D form. dHyp = O=C(O)[C@H]1C[C@H](O)CN1

Key:
[1] = test system: BV2 (mouse microglia) cell line; assay: pHrodo-myelin phagocytosis/cell viability high content imaging assay: viability (cell count, nuclear area, nuclear intensity); conditions: 48 hours treatment
Method in brief: (§1)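 Duplicate single-point screen at 10 μM over 48 h, combined with pHrodo-myelin phagocytosis during the last 20 h. Cytotoxicity is taken from imaged cell counts and nuclear intensity changes, normalized to untreated wells as % control.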

[2] = test system: HMC3 (human microglia) cell line; assay: as above; conditions: 48 hours treatment
Method in brief: as §1

[3] = test system: BV2 (mouse microglia) cell line; assay: pHrodo-myelin phagocytosis/cell viability high content imaging assay: phagocytosis signal; type: cell-based
Method in brief: (§2)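 Phagocytosis and cell viability were measured together by high content imaging about 22 hours after pHrodo-myelin addition. Three measurements were extracted from the images. Intensity increase and decrease were taken as early and later apoptosis, respectively.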

[4] = test system: HMC3 (human microglia) cell line; assay: as above; type: cell-based
Method in brief: as §2

[5] = BV2, compound 10 uM, pHrodo-myelin
[6] = HMC3, compound 10 uM, pHrodo-myelin
[7] = BV2 cells, 10 uM compound, 48 hours treatment, pHrodo-myelin final 20 hours
[8] = HMC3 cells, 10 uM compound, 48 hours treatment, pHrodo-myelin final 20 hours

| SMILES | 1. Cell count (% control) ([1]; BV2, compound 10 uM) | 2. Nuclear Area (% Control) ([1]; BV2, compound 10 uM) | 3. Nuclear DNA Intensity (% control) ([1]; BV2, compound 10 uM) | 1. Cell count (% control) ([2]; HMC3, compound 10 uM) | 2. Nuclear Area (% Control) ([2]; HMC3, compound 10 uM) | 3. Nuclear DNA Intensity (% control) ([2]; HMC3, compound 10 uM) | 4. Phagocytosis (% control) [3, 5] [% control] | 4. Phagocytosis (% control) [4, 6] [% control] | 1. Cell count (% control) ([1]; BV2 cells, 10 uM compound) | 2. Nuclear Area (% Control) ([1]; BV2 cells, 10 uM compound) | 3. Nuclear DNA Intensity (% control) ([1]; BV2 cells, 10 uM compound) | 1. Cell count (% control) ([2]; HMC3 cells, 10 uM compound) | 2. Nuclear Area (% Control) ([2]; HMC3 cells, 10 uM compound) | 3. Nuclear DNA Intensity (% control) ([2]; HMC3 cells, 10 uM compound) | 4. Phagocytosis (% control) [3, 7] [% control] | 4. Phagocytosis (% control) [4, 8] [% control] |
| --- | --- | --- | --- | --- | --- | --- | --- | --- | --- | --- | --- | --- | --- | --- | --- | --- |
| O=S(=O)(NC1CCNCC1)c1cc(S(=O)(=O)c2ccccc2)ccc1C(F)(F)F [UNC10302840A] | 104.4 | 105.6 | 95.4 | 108.8 | 103.9 | 95.8 | 189.7 | 90.9 |  |  |  |  |  |  |  |  |
| NCCCC[C@H](N[C@@H](CCc1ccccc1)C(=O)O)C(=O)N1CCC[C@H]1C(=O)O.O.O [UNC10302835A] | 119.8 | 103.4 | 99.2 | 155.8 | 99.6 | 95.8 | 121.2 | 70.9 |  |  |  |  |  |  |  |  |
| CC(=O)N[C@H](Cc1ccc(O)cc1)C(=O)N1CCC[C@@H]1C(=O)N1C[C@@H](O)C[C@@H]1C(=O)NCC(=O)N[C@H](C)C(=O)NCC(N)=O [UNC10303110A] (Ac-[dY][dP][dHyp]G[dA]G-NH2) | 113.8 | 106.0 | 97.3 | 110.1 | 103.7 | 94.9 | 117.7 | 73.8 |  |  |  |  |  |  |  |  |
| CNC(=O)[C@H](Cc1c[nH]c2ccccc12)NC(=O)[C@@H](CC(=O)NO)CC(C)C [UNC10302858A] |  |  |  |  |  |  |  |  | 101.6 | 102.8 | 98.5 | 86.0 | 95.1 | 101.4 | 100.0 | 82.4 |
| CCc1ccc(CCOc2ccc(CC3SC(=O)NC3=O)cc2)nc1.Cl (stereo not drawn) [UNC10240376D] |  |  |  |  |  |  |  |  | 113.0 | 109.1 | 109.5 | 140.5 | 99.5 | 91.5 | 139.3 | 81.1 |
| COc1ccc(CCN2CCN(CCCc3ccccc3)CC2)cc1OC.Cl.Cl [UNC10302848A] |  |  |  |  |  |  |  |  | 91.1 | 105.5 | 98.2 | 84.9 | 99.2 | 95.9 | 120.8 | 82.7 |
| c1ccc(CNc2nc(NCc3ccccc3)c3ccccc3n2)cc1 [UNC10302879A] |  |  |  |  |  |  |  |  | 27.3 | 94.3 | 65.0 | 28.2 | 43.8 | 179.2 | 0.00106 | 0.0516 |
| CCN(CC)Cc1ccc(C(=O)N(CCc2ccccc2OC)[C@@H]2CCNC2)cc1.Cl.Cl [UNC10302833A] |  |  |  |  |  |  |  |  | 70.3 | 106.1 | 102.7 | 76.9 | 96.9 | 107.9 | 210.8 | 38.5 |
| Cc1cccc(-c2nn3c(c2-c2ccnc4ccc(C(N)=O)cc24)CCC3)n1 [UNC10245080A] |  |  |  |  |  |  |  |  | 99.1 | 108.1 | 97.4 | 126.0 | 104.6 | 85.7 | 174.0 | 85.1 |
